Source: a melting point compilation (Tetko et al.; mined from patent text by program, amines drawn as free bases though some values may be those of a salt)

Row | Compound | melting point
1 | CN1CCN(C(=O)COc2cccc(-n3nc(-c4ccc(F)cc4)c4cccnc43)c2)CC1 | 132 to 135 °C
2 | CC(=O)OC1CCC2(C)C(=CCC3C2CCC2(C)C(n4ncnn4)=CCC32)C1 (configuration not stated) | 155 to 156 °C
3 | CC(=O)Nc1ccc(CC(=O)O)cc1Br | 157 to 159 °C
4 | CCn1nc2c(N)nc3ncccc3c2c1CC(C)C | 273 to 276 °C
5 | COc1ccc2c(c1)CCC1C2=CCC2(C)C(OC(C)(C)C)CCC12 (single isomer, unassigned; (+)) | 131 to 132 °C
6 | N#Cc1ncn2c1[C@@H]1CCN1C(=O)c1ccccc1-2 | 232 to 234 °C
7 | CC(C)N(CCN1C(=O)C(=O)c2cc(Br)ccc21)C(C)C | 91 to 93 °C
8 | N#CC(C(=O)Nc1ccc(Cl)cc1)C(=O)c1ccc[nH]1 (configuration not stated) | 219 to 221 °C
9 | COc1cc2nc(N3CCN(C(=O)C4CCCC4)CC3)nc(N)c2cc1OC | 256 to 259 °C
10 | CC(Br)c1cc2ccccc2s1 (configuration not stated) | 53 °C
11 | Cn1c(COc2cccc(C(=O)O)c2)nc2ccc(Oc3cccnc3)cc21 | 240 to 245 °C
12 | COc1cc(OC)c(N2CCCC2)cc1/C=C/C(=O)c1ccc(S(=O)(=O)NCc2ccccn2)cc1 | 112 to 116 °C
13 | O=[N+]([O-])c1c(Cl)c(Cl)cc2c1OC(F)(F)O2 | 29 to 30 °C
14 | CN(C)Cc1nnc2n1-c1ccc(Cl)cc1C(c1ccccc1Cl)=NC2 | 199 to 201 °C
15 | O=[N+]([O-])c1ccnc(Nc2nccs2)c1 | 230 to 233 °C
16 | Cc1cc([N+](=O)[O-])cc(N)c1[N+](=O)[O-] | 125 to 127 °C
17 | CCCCCCc1ccc(CCCCC(N)(CO)CO)cc1 | 99 to 102 °C
18 | NC(=O)CNC(=O)c1cc(-c2cccc3cc(Cc4cc(F)cc(Cl)c4)sc23)ccn1 | 157 to 158 °C
19 | CCCNc1ncc2c(=O)[nH]c(-c3ccccc3OCCC)nc2n1 | 185 to 187 °C
20 | CC(C)(C)NC(=S)N1CCN(c2cnccn2)CC1 | 153 to 156 °C
21 | CC1CCC(NS(=O)(=O)NC(=O)OCc2ccccc2)CC1 (configuration not stated) | 153 to 155 °C
22 | CC1(C)c2ccccc2-c2[nH]c3ccccc3c21 | 160 °C

More lines, now with the values ahead:

Row | melting point | Compound
23 | 142 to 144 °C | CCCN(CCC)Cc1cnc(-c2ncn3c2CN(C)C(=O)c2sccc2-3)o1
24 | 140 to 142 °C | Cc1nc(N2CCN(Cc3ccccc3)S2(=O)=O)sc1C(=O)NCc1cccnc1
25 | 208 to 209 °C | CCOC(=O)n1nc(-c2cc(C(C)(C)C)c(O)c(C(C)(C)C)c2)c2ccc(C)nc21
26 | 108 to 109 °C | CCC(O)(c1ccc(OCCN(C)C)cc1)c1cccc(Cl)c1 (configuration not stated)
27 | 176 to 177 °C | CS(=O)(=O)c1ccc(C(=O)c2cc(Cl)ccc2N)cc1
28 | 137 °C | O=CNNC(C(=O)O)c1ccccc1 (configuration not stated)
29 | 107 to 108 °C | CC(=O)NCCC1CCc2ccc(O)cc21 (configuration not stated)
30 | 178 to 180 °C | O=C(NC1CCN(CC(O)c2ccccc2)CC1)c1ccccc1 (configuration not stated)
31 | 170 to 171 °C | O=C(NCCN1CCN(c2ncccn2)CC1)NC12CC3CC(CC(C3)C1)C2
32 | 67 °C | CCOC(=O)c1cnc(Oc2ccccc2)s1
33 | 259 to 261 °C | N#Cc1c(-c2ccc(Cl)cc2)[nH]c(Cl)c1Cl
34 | 183 to 185 °C | CC(c1ccc2[nH]nc(S(=O)(=O)c3cccc4ccccc34)c2c1)N1CCN(C)CC1 (configuration not stated)
35 | 127 °C | CCCCOC(=O)c1c(-c2cnccn2)ssc1=S
36 | 145 to 170 °C | Nc1cccc(-c2ccc(CCNCc3ccc(Cl)c(Cl)c3)c3ccccc23)n1
37 | 205 to 206 °C | O=C1N=c2ccc(NCCCc3ccccc3)cc2=N1
38 | > 300 °C | Oc1cccc(-c2ccncc2)c1
39 | 131 to 133 °C | Nc1ccnc(CSCCN2C(=O)c3ccccc3C2=O)n1
40 | 233 to 235 °C | CCOC(=O)c1nnc(CNC(=O)c2cc3ccccc3[nH]2)n1-c1sc(CC)cc1C(=O)c1ccccc1Cl
41 | 150 to 152 °C | O=C1C(=O)c2ccc(Br)cc2C2=C1SCC1(CCN(CC(O)COc3ccc(Cl)cc3)CC1)O2 (configuration not stated)
42 | 132 to 135 °C | CC(=O)CC(=O)N[C@H]1CC(=O)OC1=O
